One data set has as its system stromelysin. Description: synovial stromelysin expression in arthritic rats (Northern blot). The format is in vivo, rat. As to conditions: BMOV-treated (with NAC) vs control, Day 18. How it is done:
Collagenase, stromelysin, and IL-1 expression were quantitated in each group of rats. Selected rats in each group were sacrificed on Day 18 post arthritis onset to measure collagenase, stromelysin, and IL-1 expression via the Northern Blot. Synovial biopsies were pooled and homogenized in the presence of RNASTAT-60 (Tel Test). Total RNA was isolated following the manufacturer's instructions, washed in 70% ethanol, and dissolved in 30 μl RNA loading buffer (Sigma) containing ethidium bromide. The RNA was electrophoresed on a 1% agarose formaldehyde gel and transferred to 0.45 μm nylon filter membrane (Magna NT, MSL). The blot was prehybridised in 50% formamide, 5×SSPE, 5×dendhardts, 1% SDS, 200 μg/ml ssDNA and 50 μg/ml tRNA. The rat collagenase cDNA (bp. 1-550 of locus RATCOL genbank accession M60616), rat stromelysin (ATCC, Rockville, Md.), or rat […] (genbank accession D00403) were labeled by random primed incorporation of ^32 P-dATP (Random Primed Labeling Kit, Boerhinger Manheim). After overnight hybridization at 42° C. overnight, the blot was washed in 1×SSPE at 37° C. and exposed to Kodak X-Ornat AP film for 24 hours at -70° C. with an intensifying screen. The blot was stripped with 50% formamide in 2×SSPE, checked for residual counts and reprobed. The resulting autoradiographs were digitized and analyzed with NIH image software and normalized for RNA loading.

A further data set relates to MDAY-D2 tumor. Nature of the data set: BMOV loaded microspheres on tumor growth (Example 19). In kind it is in vivo, mice. The settings on record: BMOV solution. How it is done: The effect of slow releasing microspheres loaded with 20% BNOV on tumor growth in mice was investigated as follows.
On day 6 the mice were divided into 6 groups as follows: group 1, empty control; group 3, tumor control; group 3, […]; group 4, injected IP with 20 mg palla beads containing 5 mg of BMOV; group 5, injected IP with 10 mg of BMOV beads on day 6 and day 9 respectively and; group 6, injected intramuscularly with 10 mg of BMOV beads on day 6 and day 9. On day 16, the mice were sacrificed and tumors were dissected.

For data set [1], the system named is tumor growth. Description: different concentrations of BMOV on tumor growth (Example 23). The format is in vivo, mice. Also noted: Tumour weight / Tumour weight, Means: unit not given here. As to conditions: for Tumour weight: individual mice. How it is done:
In this experiment we determined the optimum concentration for inhibition of tumor growth as follows.
Forty mice were subcutaneously injected with tumor cells (10×10^6/ml)on day 1. On day 5, the mice were divided into five groups as follows: Group 1; control, PBS injected; Group 2: 0.1% BMOV injected; Group 3: 0.25% BMOV injected; Group 4: 0.5% BMOV injected and; Group 5: 0.75% BMOV injected. All the mice were injected (I.P.) with 2 mg NAC before injection of BMOV. […] The effective concentrations of BMOV are from 0.1% to 0.75%.

Another data set relates to KB8, KB8-5 and KB85-11. Nature of the data set: killing of drug resistant ovarian cancer cell lines KB8, KB8-5 and KB85-11. In kind it is cell-based. The settings on record: 0-50 μM, 48 hours. As for the experimental part:
The effect of orthovanadate on three ovarian cancer cell lines, KB8, KB8-5 and KB85-11, which have increasing drug resistance, respectively, relative to the parent cell line, KB3-1 was compared. These drug resistant cell lines are not killed by several classes of chemotherapeutic agents such as colchicine, vinblastine and doxorubicin. In the study, cell lines of increasing drug resistance (KB8, KB8-5 and KB-85-11) and the parent cell line, KB3-1, were incubated in media (DMEM) containing 0-50 μM orthovanadate for 48 hours. The cells were harvested and the number of viable cells determined.

The test system of data set [2] is non-proliferating chondrocytes. Description: viability of non-proliferating chondrocytes (high cell density). The format is cell-based. The settings on record: 0-50 μM, 48 hours. How it is done: In order to compare the effect of orthovanadate on non-proliferating and proliferating chondrocytes, chondrocytes were plated at both high cell density (2×10^6 to 4×10^6 cells/per well on a six well plate) (nonproliferating) and at a lower cell density (5×10^5 to 1×10^6 cells/per well on a six well plate) (proliferating) and then maintained for 48 hours. The cells were then incubated in media (HAMS F12) containing 0-50 μM Orthovanadate for an additional 48 hours. The cells were harvested and the number of viable cells determined.

The next data set concerns synoviocytes. Nature of the data set: synoviocyte proliferation, dye exclusion (Example 24). The format is cell-based. As for the experimental part:
The effect of vanadium compounds on synoviocyte proliferation was investigated as follows. Synoviocytes were plated on six well plates and treated with orthovanadate or vanadyl sulphate and incubated for 24 hours. The cells were removed and the number of viable cells determined by the dye exclusion method.

The subject of data set [3] is tumor growth. Nature of the data set: tumor growth in vivo, orthovanadate and N-acetylcysteine (Example 7). Set-up: species or system mice. How it is done: Since N-acetylcysteine is converted to glutathione in cells, higher levels of glutathione may not only reduce orthovanadate induced toxicity but may also reduce tumor formation.
Twenty mice were injected subcutaneously with 2×10^5 cells on Day 1. At day 4, the mice were divided into four groups of five mice. Group one (control) received subcutaneous injections of 50 μl of water. Group two received daily intraperitoneal injections of 50 μl of 250 mM N-acetylcysteine. Group three received daily subcutaneous injections of 50 μl of 10 mg/ml of orthovanadate. Group four received daily intraperitoneal injections of 50 μl of […] N-acetylcysteine and 20 minutes later received 50 μl of subcutaneous injection of 50 μl of 10 mg/ml of orthovanadate. On day 10 the treatment was stopped. The animals were sacrificed on Day 13 and analyzed for tumor growth.

These results are taken from US5871779A, “Treatment of arthropathies with vanadate compounds or analogues thereof” (Mount Sinai Hospital Corporation, priority 1996, dated 1999).

Where “and” joins values, the source holds several entries; their conditions need not be identical. Equal entries are not always repeated.

For `Cc1occc(=O)c1[O-].Cc1occc(=O)c1[O-].[O]=[V+2]` [BMOV, bis(methylmaltolato) oxovanadium (IV)], in the data set with stromelysin, the “percent inhibition of stromelysin gene expression” value is 58%. Further, the “Tumour weight, Average” value in the data set on MDAY-D2 tumor is given as 0.15. Further, the Tumour weight with MDAY-D2 tumor (individual mice) is 0.4 and 0.12 and 0.07 and 0.04; in the data set with tumor growth [1] (0.1% BMOV + 2 mg NAC i.p.), 0.44 and 0.40 and 0.48 and 0.62 and 0.54 and 0.84 and 0.18 and 0.87; with tumor growth [1] (0.25% BMOV + 2 mg NAC i.p.), 0.14 and 0.23 and 0.73 and 0.04 and 0.21 and 0; in the data set on tumor growth [1] (0.5% BMOV + 2 mg NAC i.p.), 0.40 and 0.20 and 0.07 and 0.17 and 0.06 and 0; in the data set with tumor growth [1] (0.75% BMOV + 2 mg NAC i.p.), 0.07 and 0.16 and 0.08 and 0.21 and 0.13 and 0. Further, the “Tumour weight, Means” value in the data set with tumor growth [1] (0.1% BMOV + NAC) worked out at 0.55; with tumor growth [1] (0.25% BMOV + NAC), 0.18; with tumor growth [1] (0.5% BMOV + NAC) it was 0.22; with tumor growth [1] (0.75% BMOV + NAC), 0.09. Moreover, in the data set with tumor growth [1] (0.75% BMOV + NAC, mouse 8), the death of animal entry is “died”.
As to `[Na+].[Na+].[Na+].[O]=[V]([O-])([O-])[O-]` [orthovanadate, sodium orthovanadate], in the data set on KB8, KB8-5 and KB85-11, the “killing of drug resistant cell lines” value is on record as “equally effective”. Moreover, in data set [2], the “effect on chondrocytes plated at high cell density” value is reported as “did not effect”. In the data set with synoviocytes (25 μM, 24 hours (control 2.6)), the Number of cells is on record as 0.1 10^-5. In the data set on synoviocytes (24 hours), the cytotoxicity to synoviocytes result is “cytotoxic to the cells” and the synoviocyte proliferation result is recorded as “inhibited synoviocyte proliferation”. For the same compound, the detectable tumors result in the data set on tumor growth [3] (day 13) was “two had no detectable tumors”. For the same compound, the animal deaths entry with tumor growth [3] (orthovanadate 50 μl 10 mg/ml s.c. daily) is given as “One orthovanadate treated animal died”.
